# Experiments:
# [1] = system: patients with Wilson's disease
# Experimental: This open-label, phase 2 study was performed at 11 hospitals in the USA and in Europe. […] Investigators, other hospital personnel, and patients were aware of the identity of the treatment. […] This study is registered with ClinicalTrials.gov, number NCT02273596.
# The open-label, phase 2 study was performed at 11 hospitals. Eligible patients were aged 18 years or older, with a diagnosis of Wilson's disease established by a Leipzig score of 4 or more. […] Patients with decompensated hepatic cirrhosis, a MELD score greater than 11, or a modified Nazer score (revised King's score) greater than 6 were excluded.
# Investigators, other hospital personnel, patients, and the study sponsor were aware of the identity of the treatment.
# Up-titration was stepwise, with each increase restricted to double the previous dose, and not permitted if NCC was within or below the normal range.
# Using values for plasma total copper and ceruloplasmin concentrations, NCC was calculated by subtracting the amount of copper bound to ceruloplasmin from total copper concentrations (determined with inductively coupled plasma mass spectrometry). […] The correction method used the average molar ratio of copper to molybdenum in the tripartite complex, which was determined using the relationship between NCC and plasma molybdenum concentrations and confirmed by two independent methods. The NCC correction method was validated using random selections of test and validation samples.
# The primary endpoint was change in NCCcorrected from baseline to 24 weeks, which was measured as NCC concentrations corrected for copper contained in tetrathiomolybdate-copper-albumin complexes (NCCcorrected).
# Secondary endpoints were safety and tolerability, change in and time to normalisation of NCCcorrected level clinical neurological disease, liver function, clinical symptoms, health-related quality of life (HRQoL), psychiatric status, and pharmacokinetics and exchangeable copper, speciation profiling, and urinary copper. Psychiatric status, pharmacokinetics data, and copper endpoints were also measured. Neurological disease was assessed as patient-reported disability, measured with UWDRS part II, and also as trained-rater-assessed neurological status, measured with UWDRS part III. Liver synthetic function was assessed by monitoring of international normalised ratio (INR) and albumin concentrations. Additionally, changes in liver function were assessed by modified Nazer score (based on bilirubin, INR, AST, albumin, and white blood cell count) and, in a post-hoc analysis, by the MELD score (based on bilirubin, creatinine, INR, and cause of liver disease). HRQoL was measured with the EuroQoL 5 Dimensions Visual Analogue Scale (EQ VAS).
# Adverse event (AE) data was collected for onset, duration, seriousness, and severity, with relation to study medication determined by the investigator.
# Since the aim of the study was to present primarily descriptive statistics, no formal power calculations were performed. Changes in copper concentrations and scores were summarised over time with descriptive statistics. Mixed-model repeated-measures analysis with a fixed-effect term were applied for clinic visit, and a spatial power covariance structure was applied to model the within-participant errors. A spatial power covariance structure was selected because it assumes that the within-participant correlation decays as the time distance increases between repeated measures. SAS (version 9.3) was utilised to provide change in least-squares mean over time, and the associated 95% CIs, SE, and two-sided p values.
# [2] = system: patients with Wilson disease
# Experimental: Changes in neurological status were characterized using the Unified Wilson's Disease Rating Scale (UWDRS).
# Patients were excluded if they had decompensated hepatic cirrhosis, a model for end-stage liver disease (MELD) score >11, or a modified Nazer score (revised King's score)>6.
# The 24-week, phase 2, open-label study was conducted in Europe and the USA. […] Thereafter, dosing was tailored according to laboratory (including NCC concentrations adjusted for plasma molybdenum) and clinical assessments (maximum daily dose administered: 120 mg).
# Disability and neurological status were assessed using parts II and III, respectively, of the UWDRS at baseline and weeks 4, 8, 12, 18, and 24: Disability (part II): 10-item patient-reported questionnaire (range for total scores: 0-40; higher scores indicate greater disability). Neurological status (part III): 23-item clinician-assessed score (range for total scores: 0-143; higher scores indicate worse neurological status). Data (total scores for UWDRS parts II and III, and AEs) are summarized briefly for context in Results.
# UWDRS neurological status scores at baseline, week 24, and change from baseline to week 24 were calculated for: any individual item experienced by at least 50% of patients; and for item groups (i.e. collections of individual items that could be considered to represent particular patient phenotypes [Table 11]).
# Least-squares mean (standard error [SE], 95% confidence intervals [CIs]) values were calculated for changes from baseline for UWDRS total scores using a mixed-model repeated-measures analysis; significance was assessed using two-sided p values. To investigate and quantify the relationship between UWDRS total scores for parts II and III, a random coefficients analysis was conducted using each patient's scores from all study visits. Summary statistics were calculated for other outcomes.
# [3] = baseline to week 24, least-squares mean, mixed-model repeated measures
# [4] = baseline to week 24, mixed-model repeated measures
# [5] = mixed-model repeated measures using all visits up to week 24
# [6] = of 22 patients, baseline to week 24
smiles,measurement,setting,value
"C[N+](C)(C)CCO.C[N+](C)(C)CCO.[SH-].[SH-].[S]=[Mo]=[S] [WTX101, bis-choline tetrathiomolybdate]","Patients reporting at least one treatment-emergent adverse event, Number of Patients (%)","[1]; 24 weeks, N=28",17 (61%)
same,"adverse event ALT increased, Number of Patients (%)","[1]; 24 weeks, N=28",8 (29%)
same,"adverse event AST increased, Number of Patients (%)","[1]; 24 weeks, N=28",7 (25%)
same,"adverse event Blood alkaline phosphatase increased, Number of Patients (%)","[1]; 24 weeks, N=28",3 (11%)
same,"adverse event Dry Skin, Number of Patients (%)","[1]; 24 weeks, N=28",2 (7%)
same,"adverse event GGT increased, Number of Patients (%)","[1]; 24 weeks, N=28",8 (29%)
same,"adverse event Headache, Number of Patients (%)","[1]; 24 weeks, N=28",2 (7%)
same,"adverse event Hepatic enzyme increased, Number of Patients (%)","[1]; 24 weeks, N=28",4 (14%)
same,"adverse event Nausea, Number of Patients (%)","[1]; 24 weeks, N=28",2 (7%)
same,"adverse event Tremor, Number of Patients (%)","[1]; 24 weeks, N=28",2 (7%)
same,Relationship to the study drug as deemed by the investigator: ALT increased,"[1]; SAE, baseline to week 24",Possible
same,Relationship to the study drug as deemed by the investigator: Abnormal behavior,"[1]; SAE, baseline to week 24",Unrelated
same,Relationship to the study drug as deemed by the investigator: Adjustment disorder,"[1]; SAE, baseline to week 24",Unrelated
same,Relationship to the study drug as deemed by the investigator: Affective disorder,"[1]; SAE, baseline to week 24",Unrelated
same,Relationship to the study drug as deemed by the investigator: Agranulocytosis,"[1]; SAE, baseline to week 24",Probable
same,Relationship to the study drug as deemed by the investigator: Gait disturbance,"[1]; SAE, baseline to week 24",Unlikely
same,Relationship to the study drug as deemed by the investigator: Hepatic enzyme increased (severe ALT/AST elevation),"[1]; SAE, baseline to week 24",Probable
same,Relationship to the study drug as deemed by the investigator: Mania,"[1]; SAE, baseline to week 24",Unlikely
same,Relationship to the study drug as deemed by the investigator: Personality disorder,"[1]; SAE, baseline to week 24",Unlikely
same,Relationship to the study drug as deemed by the investigator: Psychotic disorder,"[1]; SAE, baseline to week 24",Unrelated
same,Relationship to the study drug as deemed by the investigator: Decline in neurological functioning,"[1]; SAE, baseline to week 24, likely due to disease progression",Possible
same,week by which mean NCCcorrected was below the upper limit of normal,[1]; ULN 2.3 μmol/L,≤ 12 week
same,time to normalisation of liver function tests,[1]; after dose adjustments or treatment interruption,1-2 weeks
same,time of occurrence of liver enzyme increases,"[1]; after initiation, at 30 mg/day or higher",4-10 weeks
same,"patients who achieved or maintained normalised NCCcorrected, n (%)","[1]; at 24 weeks, of 28 patients",16 (57%)
same,"patients with at least a 25% reduction from baseline NCCcorrected, n (%)","[1]; at 24 weeks, of 28 patients",4 (14%)
same,patients meeting the criteria for treatment success,"[1]; at 24 weeks, of 28 patients, normalised NCCcorrected (≤2.3 μmol/L) or ≥25% reduction",71%
same,reduction of mean NCCcorrected,[1]; baseline to week 24,72%
same,UWDRS part II score Change from baseline,[1]; [3],−3.7
same,UWDRS part III score Change from baseline,[1]; [3],−8.7
same,Albumin Change from baseline,[1]; [4],2.3 g/L
same,Bilirubin Change from baseline,[1]; [4],0.02 mg/dL
same,EQVAS Change from baseline,[1]; [4],9.2
same,INR Change from baseline,[1]; [4],−0.05
same,Modified Nazer score Change from baseline,[1]; [4],−0.4
same,Platelets Change from baseline,[1]; [4],2.3 1 × 10^9/L
same,MELD score Change from baseline,"[1]; baseline to week 24, post-hoc, mixed-model repeated measures",−0.5
same,increase of median peak ALT from baseline,[1]; in the 11 patients with liver enzyme increases,7.2 times
same,median peak ALT,"[1]; in the 11 patients with liver enzyme increases, range 101-1341",197 U/L
same,ALT Change from baseline,[1]; [5],48.4 U/L
same,AST Change from baseline,[1]; [5],3.8 U/L
same,GGT Change from baseline,[1]; [5],60.7 U/L
same,most pronounced ALT signal,"[1]; one patient, 30 mg/day",1341 U/L
same,second highest ALT signal,"[1]; one patient, 120 mg/day",615 U/L
same,"patients with UWDRS part II score improved by at least one point, n (%)",[1]; week 24,12 (57%)
same,"patients with UWDRS part III score improved by 4 or more points, n (%)",[1]; week 24,14 (67%)
same,Modified Nazer score Week 24 Mean (SD),"[1]; week 24, n=21, baseline 1.4 (1.0)",1.1 (0.6)
same,EQVAS Week 24 Mean (SD),"[1]; week 24, n=23, baseline 65.9 (23.0)",74.3 (16.9)
same,INR Week 24 Mean (SD),"[1]; week 24, observed cases, n=22, baseline 1.11 (0.16)",1.06 (0.08)
same,Bilirubin Week 24 Mean (SD),"[1]; week 24, observed cases, n=23, baseline 0.51 (0.29)",0.49 (0.27) mg/dL
same,NCCcorrected Week 24 Mean (SD),"[1]; week 24, observed cases, n=23, baseline 3.6 (2.1)",0.9 (1.0) μmol/L
same,AST Week 24 Mean (SD),"[1]; week 24, observed cases, n=23, baseline 36.6 (27.6)",28.2 (9.9) U/L
same,Albumin Week 24 Mean (SD),"[1]; week 24, observed cases, n=23, baseline 39.2 (5.4)",40.9 (3.2) g/L
same,ALT Week 24 Mean (SD),"[1]; week 24, observed cases, n=23, baseline 42.6 (32.8)",36.8 (18.7) U/L
same,GGT Week 24 Mean (SD),"[1]; week 24, observed cases, n=23, baseline 70.1 (64.0)",97.5 (77.7) U/L
same,Platelets Week 24 Mean (SD),"[1]; week 24, observed cases, n=23, baseline 155.5 (72.5)",147.9 (63.2) 1 × 10^9/L
same,MELD score Week 24 Mean (SD),"[1]; week 24, post-hoc, n=21, baseline 7.7 (1.9)",7.2 (1.8)
same,individuals with deterioration in dystonia item group score,[2]; baseline to week 24,three
same,individuals with deterioration in gait item group score,[2]; baseline to week 24,six
same,individuals with deterioration in rigidity item group score,[2]; baseline to week 24,four
same,mean improvement in UWDRS part III item group total tremor,"[2]; baseline to week 24, SD 61.7",34.2%
same,mean improvement in UWDRS part III item group limb agility (dexterity) and coordination,"[2]; baseline to week 24, SD 72.2",29.2%
same,overall deterioration in UWDRS part III item group gait,"[2]; baseline to week 24, SD 77.8",4.2%
same,overall deterioration in UWDRS part III item group dystonia,"[2]; baseline to week 24, SD 135.2",15.0%
same,overall deterioration in UWDRS part III item group rigidity,"[2]; baseline to week 24, SD 169.6",26.9%
same,patients with any deterioration in limb agility and coordination item group score,[2]; [6],three
same,patients with any deterioration in tremor item group score,[2]; [6],four
same,mean improvement (% change) in UWDRS part III item alternating hand movements,[2]; over 24 weeks,35.0%
same,mean improvement (% change) in UWDRS part III item handwriting,[2]; over 24 weeks,51.4%
same,mean improvement (% change) in UWDRS part III item leg agility,[2]; over 24 weeks,40.8%
same,mean improvement (% change) in UWDRS part III item postural arm tremor,[2]; over 24 weeks,39.5%

# — patent US12233088B2 (Alexion Pharmaceuticals, Inc., priority 2017, dated 2025)
